Data taken from patent US20240116910A1, “Heterocycles as WIP1 Inhibitors” (PMV Pharmaceuticals, Inc., priority 2022, published 2024).

How the values were obtained:
[1] = biological target: recombinant His-tag Wip1 full length protein (amino acids #1-605) (Homo sapiens (Human), UniProt O15297); assay: Wip1 full length phosphatase enzyme FDP assay; format: biochemical; details: fluorescein diphosphate (FDP) substrate, RT 2 hours, fluorescence Ex485/Em535
[2] = biological target: recombinant His-tag Wip1(2-420) protein (amino acids #2-420) (Homo sapiens (Human), UniProt O15297); assay: Wip1(2-420) phosphatase enzyme FDP assay; format: biochemical; details: fluorescein diphosphate (FDP) substrate, RT 2 hours, fluorescence Ex485/Em535; read-out: WIP1 (Truncated 2-420) FDP Assay: IC50
Sequence of recombinant His-tag Wip1(2-420) protein (amino acids #2-420) (O15297 2-420): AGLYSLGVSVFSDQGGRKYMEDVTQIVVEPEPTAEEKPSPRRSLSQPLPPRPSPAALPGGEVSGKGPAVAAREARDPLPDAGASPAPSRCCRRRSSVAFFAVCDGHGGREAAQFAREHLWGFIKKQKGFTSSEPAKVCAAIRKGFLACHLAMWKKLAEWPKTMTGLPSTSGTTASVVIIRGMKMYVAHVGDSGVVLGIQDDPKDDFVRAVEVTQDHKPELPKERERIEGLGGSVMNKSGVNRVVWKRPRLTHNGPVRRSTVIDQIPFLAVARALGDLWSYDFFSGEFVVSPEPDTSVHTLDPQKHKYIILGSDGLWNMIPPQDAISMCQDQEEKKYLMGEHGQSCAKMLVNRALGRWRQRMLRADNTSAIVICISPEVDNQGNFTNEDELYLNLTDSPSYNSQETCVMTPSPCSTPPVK

Sequence of recombinant His-tag Wip1 full length protein (amino acids #1-605) (O15297 whole entry, the tested form may be a part): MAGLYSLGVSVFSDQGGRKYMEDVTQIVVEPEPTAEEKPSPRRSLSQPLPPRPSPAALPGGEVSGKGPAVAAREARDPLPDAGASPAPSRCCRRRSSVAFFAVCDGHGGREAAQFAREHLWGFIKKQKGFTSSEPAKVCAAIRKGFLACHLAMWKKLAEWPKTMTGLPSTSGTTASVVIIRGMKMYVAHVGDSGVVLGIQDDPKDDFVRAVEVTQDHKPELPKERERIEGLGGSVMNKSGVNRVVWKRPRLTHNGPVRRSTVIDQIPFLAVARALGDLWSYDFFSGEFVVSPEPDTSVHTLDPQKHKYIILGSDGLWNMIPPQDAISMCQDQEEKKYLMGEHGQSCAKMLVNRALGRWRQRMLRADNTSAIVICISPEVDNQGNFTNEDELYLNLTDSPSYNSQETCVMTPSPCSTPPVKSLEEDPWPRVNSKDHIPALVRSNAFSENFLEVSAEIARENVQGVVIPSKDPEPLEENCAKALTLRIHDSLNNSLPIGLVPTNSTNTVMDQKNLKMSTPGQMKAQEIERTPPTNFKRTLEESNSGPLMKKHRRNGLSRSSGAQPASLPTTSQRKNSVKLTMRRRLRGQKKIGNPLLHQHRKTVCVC

SMILES | IC50 [1] | IC50 [2]
Cc1ncc(Cl)cc1N[C@@H](C)c1ccc(C(=O)N[C@@H](CC2CCCC2)C(=O)Nc2ccc3c(c2)CCCN3C)s1 [Compound 168, (2S)-2-({5-[(1S)-1-[(5-chloro-2-methylpyridin-3-yl)amino]ethyl]thiophen-2-yl}formamido)-3-cyclopentyl-N-(1-methyl-1,2,3,4-tetrahydroquinolin-6-yl)propanamide] | 15 nM | 11 nM
Cc1ncc(Cl)cc1N[C@@H](Cc1cnn(C)c1)c1ccc(C(=O)N[C@@H](CC2CCCC2)C(=O)NC2CC2)s1 [Compound 171, (2S)-2-({5-[(1S)-1-[(5-chloro-2-methylpyridin-3-yl)amino]-2-(1-methyl-1H-pyrazol-4-yl)ethyl]thiophen-2-yl}formamido)-3-cyclopentyl-N-cyclopropylpropanamide] | 10 nM | 7 nM
Cc1cc(NC(=O)[C@@H](NC(=O)c2ccc([C@H](C)Nc3cc(Cl)cnc3C)s2)C2CCCCC2)ccn1 [Compound 175, (2S)-2-({5-[(1S)-1-[(5-chloro-2-methylpyridin-3-yl)amino]ethyl]thiophen-2-yl}formamido)-2-cyclohexyl-N-(2-methylpyridin-4-yl)acetamide] | 15 nM | 13 nM
Cc1ncc(Cl)cc1N[C@@H](C)c1ccc(C(=O)N[C@H](C(=O)Nc2cnn(C)c2)C2CCCCC2)s1 [Compound 177, (2S)-2-({5-[(1S)-1-[(5-chloro-2-methylpyridin-3-yl)amino]ethyl]thiophen-2-yl}formamido)-2-cyclohexyl-N-(1-methyl-1H-pyrazol-4-yl)acetamide] | 23 nM | 18 nM
Cc1cc(NC(=O)[C@H](CCC(C)C)NC(=O)c2ccc([C@H](C)Nc3cc(Cl)cnc3C)s2)ccn1 [Compound 210, (2S)-2-({5-[(1S)-1-[(5-chloro-2-methylpyridin-3-yl)amino]ethyl]thiophen-2-yl}formamido)-5-methyl-N-(2-methylpyridin-4-yl)hexanamide] | 10 nM | 7 nM
Cc1ncc(Cl)cc1N[C@@H](C)c1ncc(C(=O)N[C@@H](CC2CCCC2)C(=O)NC23CC(C2)C3)s1 [Compound 278, (2S)-N-{bicyclo[1.1.1]pentan-1-yl}-2-({2-[(1S)-1-[(5-chloro-2-methylpyridin-3-yl)amino]ethyl]-1,3-thiazol-5-yl}formamido)-3-cyclopentylpropanamide] | 30 nM | 19 nM
Cc1ncc(Cl)cc1N[C@@H](C)c1ncc(C(=O)N[C@@H](CC2CCCC2)C(=O)NC2CC2)s1 [Compound 279, (2S)-2-({2-[(1S)-1-[(5-chloro-2-methylpyridin-3-yl)amino]ethyl]-1,3-thiazol-5-yl}formamido)-3-cyclopentyl-N-cyclopropylpropanamide] | 53 nM | 41 nM
Cc1ncc(Cl)cc1NC(C)c1ncc(C(=O)N[C@@H](CC2CCCC2)C(=O)NC2CC2)s1 (stereo partly drawn) [Compound 280, (2S)-2-[(2-{1-[(5-chloro-2-methylpyridin-3-yl)amino]ethyl}-1,3-thiazol-5-yl)formamido]-3-cyclopentyl-N-cyclopropylpropanamide] | 70 nM | 41 nM
CN(Cc1ncc(C(=O)N[C@@H](CC2CCCCC2)C(=O)Nc2ccncc2)s1)c1cncc(Cl)c1 [Compound 287, 2-[[(5-chloro-3-pyridyl)-methyl-amino]methyl]-N-[(1S)-1-(cyclohexylmethyl)-2-oxo-2-(4-pyridylamino)ethyl]thiazole-5-carboxamide] | 14 nM | 6 nM
CN(Cc1ccc(C(=O)N[C@@H](CC2CCCCC2)C(=O)NC2CCC(N(C)C)CC2)s1)c1cncc(Cl)c1 (stereo partly drawn) [Compound 298, 5-[[(5-chloro-3-pyridyl)-methyl-amino]methyl]-N-[(1S)-1-(cyclohexylmethyl)-2-[[4-(dimethylamino)cyclohexyl]amino]-2-oxo-ethyl]thiophene-2-carboxamide] | 11 nM | 31 nM
Cc1ncc(Cl)cc1NCc1ncc(C(=O)N[C@@H](CC2CCCCC2)C(=O)Nc2ccncc2)s1 [Compound 300, 2-[[(5-chloro-2-methyl-3-pyridyl)amino]methyl]-N-[(1S)-1-(cyclohexylmethyl)-2-oxo-2-(4-pyridylamino)ethyl]thiazole-5-carboxamide] | 15 nM | 6 nM
CN(Cc1ncc(C(=O)N[C@@H](CC2CCCCC2)C(=O)Nc2ccncc2)s1)c1cncc(Cl)c1 [Compound 301, 2-[[(5-Chloro-3-pyridyl)-methyl-amino]methyl]-N-[(1S)-1-(cyclohexylmethyl)-2-oxo-2-(4-pyridylamino)ethyl]thiazole-5-carboxamide] | 23 nM | 42 nM
O=C(N[C@@H](CC1CCCCC1)C(=O)Nc1ccccn1)c1cnc(CNc2cncc(Cl)c2)s1 [Compound 302, 2-[[(5-chloro-3-pyridyl)amino]methyl]-N-[(1S)-1-(cyclohexylmethyl)-2-oxo-2-(2-pyridylamino)ethyl]thiazole-5-carboxamide] | 15 nM | 55 nM
CN(Cc1ncc(C(=O)N[C@@H](CC2CCCCC2)C(=O)N[C@H]2CC[C@H](N(C)C)CC2)s1)c1cncc(Cl)c1 [Compound 303, 2-[[(5-chloro-3-pyridyl)-methyl-amino]methyl]-N-[(1S)-1-(cyclohexylmethyl)-2-[[4-(dimethylamino)cyclohexyl]amino]-2-oxo-ethyl]thiazole-5-carboxamide] | 67 nM | 67 nM
O=C(N[C@@H](CC1CCCCC1)C(=O)NC1CCOCC1)c1cnc(CNc2ccnc(C(F)(F)F)c2)s1 [Compound 305, N-[(1S)-1-(cyclohexylmethyl)-2-oxo-2-(tetrahydropyran-4-ylamino)ethyl]-2-[[[2-(trifluoromethyl)-4-pyridyl]amino]methyl]thiazole-5-carboxamide] | 31 nM | 90 nM
O=C(N[C@@H](CC1CCCCC1)C(=O)NC1CC1)c1cnc(CN2CCc3ccc(C(F)(F)F)cc32)s1 [Compound 306, N-[(1S)-1-(cyclohexylmethyl)-2-(cyclopropylamino)-2-oxo-ethyl]-2-[[6-(trifluoromethyl)indolin-1-yl]methyl]thiazole-5-carboxamide] | 38 nM | 83 nM
